Assay results published in patent publication US20110053916A1 (Vertex Pharmaceuticals Incorporated, priority 2009, published 2011).

Assays:
[1] = tested on: Mycobacterium tuberculosis H37Ra; experiment: Mycobacterium tuberculosis growth inhibition assay (microtiter dilution, resazurin reduction); type: cell-based; settings: 7H9 broth, 9 days + 24 h resazurin, lowest concentration inhibiting resazurin reduction by >70%, several symbols in a cell = repeat determinations
Experimental: Compounds were screened for their ability to inhibit the growth of Mycobacterium tuberculosis H37Ra using a standard microtiter dilution method with reduction of the dye resazurin as an indicator of growth. The growth assay was carried out in standard Mycobacterium liquid growth medium, 7H9Broth (BD Biosciences, Franklin Lakes, N.J.) supplemented with 10% ADC enrichment (BD Biosciences, Franklin Lakes, N.J.). The medium was inoculate with ˜1×10^6 cells/milliliter of Mycobacterium tuberculosis H37Ra grown on a the surface of a growth medium solid medium (7H11 agar [BD Biosciences, Franklin Lakes, N.J.] supplemented with 10% OADC enrichment [BD Biosciences, Franklin Lakes, N.J.]).
Two-fold serial dilutions (either 7 or 11-step series) of test compounds in DMSO were dispensed into 96-well assay plates (sterile, black sided, clear bottom wells) in a volume of 1 microliter. One microliter of DMSO was dispensed into a control well at the end of each series. One-hundred microliters of the bacterial cell suspension in growth medium was dispensed into each test well containing a DSMO solution of compound. The assay plates were covered with a fitted lid and incubated at 37° C. in a humidified chamber for 9 days. On the ninth day 30 microliters of a 0.01% solution of resazurin (Sigma Chemical Co., St. Louis, Mo.) in distilled water was added to each well and the baseline fluorescence of resazurin was determined by measuring well fluorescence at an excitation wavelength of 492 nm and an emission wavelength of 595 nm on a Spectrafluor Plus (Tecan, Durham, N.C.) instrument. The assay plates were returned to the incubation chamber for 24 hours. After 24 hours, the fluorescence of the wells (resulting from the reduction of resazurin dye) was measured at an excitation wavelength of 492 nm and an emission wavelength of 595 nm on the Spectrafluor Plus instrument. The minimum inhibitory concentration (MIC) was called as the lowest concentration of compound that inhibited the reduction of resazurin by >70%, as compared to the DMSO (untreated) control wells. MIC values are represented as the following values: • A* <1.6 μM • A 1.6 μM<12.5 μM • B** 12.5 μM-25.0 μM • B* 25.0 μM-50.0 μM • B 50.0 μM-100.0 μM • C >100.0 μM

[2] = molecular target: T1, PknB (Mycobacterium tuberculosis, UniProt P9WI81); experiment: biochemical; parameters: species or system M. tuberculosis; settings: 3 nM PknB, 6 uM GarA, 3 μM ATP, 30 min, competitive tight-binding fit, several symbols in a cell = repeat determinations; for Ki: read-out: Ki Values
T1 construct: made in house
T1 sequence (P9WI81 whole entry): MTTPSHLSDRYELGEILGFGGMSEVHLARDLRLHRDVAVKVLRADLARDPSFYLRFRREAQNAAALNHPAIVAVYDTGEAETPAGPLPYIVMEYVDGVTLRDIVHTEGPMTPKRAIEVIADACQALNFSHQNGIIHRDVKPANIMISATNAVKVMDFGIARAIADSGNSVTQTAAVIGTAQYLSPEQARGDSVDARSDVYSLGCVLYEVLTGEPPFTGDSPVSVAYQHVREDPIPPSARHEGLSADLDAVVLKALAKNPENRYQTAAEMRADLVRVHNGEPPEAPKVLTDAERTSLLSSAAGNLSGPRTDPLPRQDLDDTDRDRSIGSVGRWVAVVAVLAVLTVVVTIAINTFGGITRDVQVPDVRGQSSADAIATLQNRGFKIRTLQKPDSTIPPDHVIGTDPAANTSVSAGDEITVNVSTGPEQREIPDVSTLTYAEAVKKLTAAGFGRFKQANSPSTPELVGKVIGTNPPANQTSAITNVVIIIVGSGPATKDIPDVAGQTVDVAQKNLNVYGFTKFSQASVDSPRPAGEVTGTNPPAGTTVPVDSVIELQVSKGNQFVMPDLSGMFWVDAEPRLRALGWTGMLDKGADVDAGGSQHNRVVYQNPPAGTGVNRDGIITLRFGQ

Compound	MIC values [1]	Ki Values [2]	Ki [2] [nM]
C[C@@H](O)c1ccc(-c2ncc(Cl)c(Nc3cc(C4CC4)[nH]n3)n2)s1 (stereo in doubt) [Compound 133, 1-[5-[5-chloro-4-[(5-cyclopropyl-1H-pyrazol-3-yl)amino]-pyrimidin-2-yl]-2-thienyl]ethanol]	B++	A**, A*	–
CC(O)c1ccc(-c2ncc(F)c(Nc3cc(C4CC4)[nH]n3)n2)s1 (stereo in doubt) [Compound 144, (S)-1-(5-(4-(5-cyclopropyl-1H-pyrazol-3-ylamino)-5-fluoropyrimidin-2-yl)thiophen-2yl)ethanol]	B++	–	10 to 50
CC(O)c1ccc(-c2ncc(F)c(Nc3cc(C4CC4)[nH]n3)n2)s1 (stereo in doubt) [Compound 147, (R)-1-(5-(4-(5-cyclopropyl-1H-pyrazol-3-ylamino)-5-fluoropyrimidin-2-yl)thiophen-2-yl)ethanol]	B++	–	10 to 50
C#Cc1cnc(-c2ccc([C@@H](O)CC)s2)nc1Nc1cc(C2CC2)[nH]n1 (stereo in doubt) [Compound 199, 1-[5-[4-[(5-cyclopropyl-1H-pyrazol-3-yl)amino]-5-ethynyl-pyrimidin-2-yl]-2-thienyl]propan-1-ol]	B+	A**, A*	–
N#CCc1ccc(Nc2nccc(Nc3cc(C4CC4)[nH]n3)n2)cc1 [Compound 1, 2-(4-(4-(5-cyclopropyl-1H-pyrazol-3-ylamino)pyrimidin-2-ylamino)phenyl)acetonitrile]	BM, B	–	10 to 50
NS(=O)(=O)c1ccc(Nc2nccc(Nc3cc(C4CC4)[nH]n3)n2)cc1 [Compound 12, 4-(4-(5-cyclopropyl-1H-pyrazol-3-ylamino)pyrimidin-2-ylamino)benzene sulfonamide]	B+	–	1 to 10
C#Cc1cnc(-c2ccccc2)nc1Nc1cc(C2CC2)[nH]n1 [Compound 14, N-(5-cyclopropyl-1H-pyrazol-3-yl)-5-ethynyl-2-phenylpyrimidin-4-amine]	B+, B	A*, A	–
N#CCc1ccc(-c2ncc(Cl)c(Nc3cc(C4CC4)[nH]n3)n2)cc1 [Compound 18, 2-(4-(5-chloro-4-(5-cyclopropyl-1H-pyrazol-3-ylamino)pyrimidin-2-yl)phenyl)acetonitrile]	B, B, C	A**, A*	–
N#CCc1ccc(-c2ncc(F)c(Nc3cc(C4CC4)[nH]n3)n2)cc1 [Compound 19, 2-(4-(4-(5-cyclopropyl-1H-pyrazol-3-ylamino)-5-fluoropyrimidin-2-yl)phenyl)acetonitrile]	B, B, C, C	–	1 to 10
C=C(Cl)c1cnc(-c2ccccc2)nc1Nc1cc(C2CC2)[nH]n1 [Compound 21, 5-(1-chlorovinyl)-N-(5-cyclopropyl-1H-pyrazol-3-yl)-2-phenyl-pyrimidin-4-amine]	B+, B, B	–	500 to 1000
OCc1ccc(-c2ncc(Cl)c(Nc3cc(C4CC4)[nH]n3)n2)s1 [Compound 25, [5-[5-chloro-4-[(5-cyclopropyl-1H-pyrazol-3-yl)amino]-pyrimidin-2-yl]-2-thienyl]methanol]	B+	–	10 to 50
CC(C)(C)NS(=O)(=O)c1ccc(-c2ncc(CCO)c(Nc3cc(C4CC4)[nH]n3)n2)s1 [Compound 228, 5-[4-[(5-cyclopropyl-1H-pyrazol-3-yl)amino]-5-(2-hydroxyethyl)pyrimidin-2-yl]-N-tert-butyl-thiophene-2-sulfonamide]	B+	–	–
CC(=O)c1sc(-c2ncc(Cl)c(Nc3cc(C4CC4)[nH]n3)n2)nc1C [Compound 297, 1-(2-(5-Chloro-4-(5-cyclopropyl-1H-pyrazol-3-ylamino)pyrimidin-2-yl)-4-methylthiazol-5-yl)ethanone]	–	–	10 to 50
NS(=O)(=O)c1ccc(-c2nc(Nc3cc(C4CC4)n[nH]3)cc(C3CC3)n2)s1 [Compound 298, 5-(4-cyclopropyl-6-(3-cyclopropyl-1H-pyrazol-5-ylamino)pyrimidin-2-yl)thiophene-2-sulfonamide]	–	–	50 to 100
NS(=O)(=O)c1ccc(-c2ncc(Cl)c(Nc3cc(C4CC4)[nH]n3)n2)cn1 [Compound 299, 5-[5-chloro-4-[(5-cyclopropyl-1H-pyrazol-3-yl)amino]-pyrimidin-2-yl]pyridine-2-sulfonamide]	–	–	10 to 50
CC(C)(C)NS(=O)(=O)c1ccc(-c2ncc(Cl)c(Nc3cc(C4CC4)[nH]n3)n2)cn1 [Compound 302, 5-[5-chloro-4-[(5-cyclopropyl-1H-pyrazol-3-yl)amino]-pyrimidin-2-yl]-N-tert-butyl-pyridine-2-sulfonamide]	–	–	10 to 50
NS(=O)(=O)c1ccc(-c2nc(Nc3cc(C4CC4)n[nH]3)c(Cl)c(C3CC3)n2)s1 [Compound 304, 5-(5-chloro-4-cyclopropyl-6-(3-cyclopropyl-1H-pyrazol-5-ylamino)pyrimidin-2-yl)thiophene-2-sulfonamide]	–	–	1 to 10
CC(=O)OCCc1cnc(-c2ccc(S(=O)(=O)NC(C)(C)C)s2)nc1Nc1cc(C2CC2)[nH]n1 [Compound 309, 2-[4-[(5-cyclopropyl-1H-pyrazol-3-yl)amino]-2-[5-(tert-butylsulfamoyl)-2-thienyl]-pyrimidin-5-yl]ethyl acetate]	–	–	100 to 500
OC1CCCc2nc(-c3ncc(Cl)c(Nc4cc(C5CC5)[nH]n4)n3)sc21 (stereo not shown) [Compound 310, 2-[5-chloro-4-[(5-cyclopropyl-1H-pyrazol-3-yl)amino]-pyrimidin-2-yl]-4,5,6,7-tetrahydrobenzothiazol-7-ol]	–	–	100 to 500
NS(=O)(=O)c1ccc(-c2nc(Nc3cc(C4CC4)n[nH]3)ncc2Cl)s1 [Compound 314, 5-[5-chloro-2-[(5-cyclopropyl-2H-pyrazol-3-yl)amino]-pyrimidin-4-yl]thiophene-2-sulfonamide]	–	–	1 to 10
NS(=O)(=O)c1ccc(-c2ccnc(Nc3cc(C4CC4)n[nH]3)n2)s1 [Compound 315, 5-[2-[(5-cyclopropyl-2H-pyrazol-3-yl)amino]pyrimidin-4-yl]thiophene-2-sulfonamide]	–	–	1 to 10
NS(=O)(=O)c1cc(-c2nccc(Nc3cc(C4CC4)[nH]n3)n2)ccc1O [Compound 318, 5-[4-[(5-cyclopropyl-1H-pyrazol-3-yl)amino]pyrimidin-2-yl]-2-hydroxy-benzenesulfonamide]	–	–	10 to 50
NS(=O)(=O)c1ccc(-c2ncc(CCCO)c(Nc3cc(C4CC4)[nH]n3)n2)s1 [Compound 319, 5-[4-[(5-cyclopropyl-1H-pyrazol-3-yl)amino]-5-(3-hydroxypropyl)pyrimidin-2-yl]thiophene-2-sulfonamide]	–	–	1 to 10
CC1CC1c1cc(Nc2nc(-c3ccc(S(=O)(=O)NC(C)(C)C)s3)ncc2Cl)n[nH]1 (stereo not shown) [Compound 321, 5-[5-chloro-4-[[5-(2-methylcyclopropyl)-1H-pyrazol-3-yl]amino]-pyrimidin-2-yl]-N-tert-butyl-thiophene-2-sulfonamide]	–	–	100 to 500
CC(C)(C)OC(=O)Nc1ccc(-c2ncc(Cl)c(Nc3cc(C4CC4)[nH]n3)n2)s1 [Compound 324, tert-butyl [[5-[5-chloro-4-[(5-cyclopropyl-1H-pyrazol-3-yl)amino]-pyrimidin-2-yl]-2-thienyl]amino]formate]	–	–	100 to 500
CN1CCN(c2cc(Nc3cc(C4CC4)[nH]n3)nc(-c3ccc(S(N)(=O)=O)s3)n2)CC1 [Compound 325, 5-[4-[(5-cyclopropyl-1H-pyrazol-3-yl)amino]-6-(4-methylpiperazin-1-yl)-pyrimidin-2-yl]thiophene-2-sulfonamide]	–	–	100 to 500
Cc1cnc(-c2ccc(C(O)CO)s2)nc1Nc1cc(C2CC2)[nH]n1 (stereo not shown) [Compound 326, 1-[5-[4-[(5-cyclopropyl-1H-pyrazol-3-yl)amino]-5-methyl-pyrimidin-2-yl]-2-thienyl]ethane-1,2-diol]	–	–	10 to 50
OCC(O)c1ccc(-c2ncc(Cl)c(Nc3cc(C4CC4)[nH]n3)n2)s1 (stereo not shown) [Compound 327, 1-[5-[5-chloro-4-[(5-cyclopropyl-1H-pyrazol-3-yl)amino]-pyrimidin-2-yl]-2-thienyl]ethane-1,2-diol]	–	–	10 to 50
NC(=O)c1ccc(-c2ncc(Cl)c(Nc3cc(C4CC4)[nH]n3)n2)s1 [compound 131, 5-(5-Chloro-4-(5-cyclopropyl-1H-pyrazol-3-ylamino)pyrimidin-2-yl)thiophene-2-carboxamide]	–	–	1 to 10
